This is an account of results in US20220396597A1 (priority 2019, published 2022).

In one experiment the target is α1Q241L mutated GABAARs (UniProt P18507+P47870+P62813, Q268L). Briefly: GABA current in N2a cells transfected with α1Q241L, β2 and γ2 subunits. The format is cell-based. To be noted: 10 μM GABA; AlloP 50 nM, MQ-221 10 μM.
The subject of another experiment is NMDAR. Briefly: NMDA-induced whole-cell currents in cultured hippocampal neurons (voltage clamp). To be noted: 10 μM NMDA. The format is cell-based, rat.

Sequence of α1Q241L mutated GABAARs (P62813 28-455 Q268L): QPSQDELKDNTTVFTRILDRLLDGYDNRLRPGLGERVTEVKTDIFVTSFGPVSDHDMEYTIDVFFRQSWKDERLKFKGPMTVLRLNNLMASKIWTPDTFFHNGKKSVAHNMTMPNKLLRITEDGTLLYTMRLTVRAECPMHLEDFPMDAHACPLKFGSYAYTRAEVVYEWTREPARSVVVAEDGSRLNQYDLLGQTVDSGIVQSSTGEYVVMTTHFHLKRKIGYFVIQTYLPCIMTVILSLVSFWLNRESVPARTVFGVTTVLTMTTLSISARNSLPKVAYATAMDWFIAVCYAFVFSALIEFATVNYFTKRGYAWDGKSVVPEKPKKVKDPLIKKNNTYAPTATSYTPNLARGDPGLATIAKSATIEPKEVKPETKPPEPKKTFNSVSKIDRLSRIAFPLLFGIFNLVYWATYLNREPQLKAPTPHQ
Sequence of α1Q241L mutated GABAARs (P47870 25-512 limits assumed): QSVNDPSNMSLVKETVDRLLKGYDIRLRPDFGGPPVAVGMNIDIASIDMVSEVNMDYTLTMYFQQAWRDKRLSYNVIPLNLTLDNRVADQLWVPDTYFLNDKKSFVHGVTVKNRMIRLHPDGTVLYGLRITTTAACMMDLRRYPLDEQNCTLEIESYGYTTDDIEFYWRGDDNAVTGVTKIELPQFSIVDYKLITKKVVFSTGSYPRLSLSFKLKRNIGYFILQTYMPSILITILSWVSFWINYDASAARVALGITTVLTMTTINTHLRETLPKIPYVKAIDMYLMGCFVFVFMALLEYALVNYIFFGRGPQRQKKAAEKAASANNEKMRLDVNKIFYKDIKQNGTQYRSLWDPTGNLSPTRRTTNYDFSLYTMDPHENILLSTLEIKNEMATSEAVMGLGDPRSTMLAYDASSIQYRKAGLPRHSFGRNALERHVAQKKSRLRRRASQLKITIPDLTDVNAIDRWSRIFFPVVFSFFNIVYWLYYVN
Sequence of α1Q241L mutated GABAARs (P18507 40-475): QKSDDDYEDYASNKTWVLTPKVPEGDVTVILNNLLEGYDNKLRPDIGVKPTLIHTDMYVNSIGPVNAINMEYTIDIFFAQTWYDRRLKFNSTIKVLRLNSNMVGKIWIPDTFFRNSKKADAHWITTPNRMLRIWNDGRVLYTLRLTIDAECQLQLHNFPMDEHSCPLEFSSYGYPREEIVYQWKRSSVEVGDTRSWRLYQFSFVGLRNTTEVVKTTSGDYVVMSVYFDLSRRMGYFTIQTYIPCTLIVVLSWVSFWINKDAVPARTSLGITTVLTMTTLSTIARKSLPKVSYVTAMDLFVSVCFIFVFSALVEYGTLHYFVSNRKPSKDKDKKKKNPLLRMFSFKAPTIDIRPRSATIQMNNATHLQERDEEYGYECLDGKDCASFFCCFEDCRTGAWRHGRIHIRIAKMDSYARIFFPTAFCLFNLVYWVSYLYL

For `CC(=O)[C@H]1CC[C@H]2[C@@H]3CC[C@H]4C[C@H](O)CC[C@]4(C)[C@H]3CC[C@]12C` [allopregnanolone, reference compound], the “Effect of the α1 Q241L mutation on potentiation of GABA current” value at α1Q241L mutated GABAARs is “elimination of allopregnanolone (AlloP) potentiation”. “pregnanolone sulfate [reference compound]”: the “Action on closed NMDAR channels (pre-application in the absence of agonist)” value in the experiment with NMDAR (2.5 μM MQ-221, 300 μM 3α5βPS) is listed as “little effect on closed channels”. Also, the “Inhibition of NMDAR function in the presence of agonist (co-application)” value in the experiment on NMDAR (300 μM 3α5βPS) is listed as “strongly inhibited”.
